Columns and labels:
[1] = target: T1, integrin α4β7 (Homo sapiens, UniProt P13612+P26010); experiment: VCAM antagonistic activity (VCAM-1/α4β7 binding assay), RPMI-8866 cells binding to VCAM-1; type: cell-based; settings: RPMI-8866 cells binding to recombinant human VCAM-1, binding buffer containing 4 mM MnCl2, 30 minutes at room temperature
T1 construct: lymphoma cell strain RPMI-8866 of human B cells, known to express integrin α4β7; endogenous in cells; host or cells: RPMI-8866, human B-cell lymphoma line
T1 sequence (P13612 34-1032): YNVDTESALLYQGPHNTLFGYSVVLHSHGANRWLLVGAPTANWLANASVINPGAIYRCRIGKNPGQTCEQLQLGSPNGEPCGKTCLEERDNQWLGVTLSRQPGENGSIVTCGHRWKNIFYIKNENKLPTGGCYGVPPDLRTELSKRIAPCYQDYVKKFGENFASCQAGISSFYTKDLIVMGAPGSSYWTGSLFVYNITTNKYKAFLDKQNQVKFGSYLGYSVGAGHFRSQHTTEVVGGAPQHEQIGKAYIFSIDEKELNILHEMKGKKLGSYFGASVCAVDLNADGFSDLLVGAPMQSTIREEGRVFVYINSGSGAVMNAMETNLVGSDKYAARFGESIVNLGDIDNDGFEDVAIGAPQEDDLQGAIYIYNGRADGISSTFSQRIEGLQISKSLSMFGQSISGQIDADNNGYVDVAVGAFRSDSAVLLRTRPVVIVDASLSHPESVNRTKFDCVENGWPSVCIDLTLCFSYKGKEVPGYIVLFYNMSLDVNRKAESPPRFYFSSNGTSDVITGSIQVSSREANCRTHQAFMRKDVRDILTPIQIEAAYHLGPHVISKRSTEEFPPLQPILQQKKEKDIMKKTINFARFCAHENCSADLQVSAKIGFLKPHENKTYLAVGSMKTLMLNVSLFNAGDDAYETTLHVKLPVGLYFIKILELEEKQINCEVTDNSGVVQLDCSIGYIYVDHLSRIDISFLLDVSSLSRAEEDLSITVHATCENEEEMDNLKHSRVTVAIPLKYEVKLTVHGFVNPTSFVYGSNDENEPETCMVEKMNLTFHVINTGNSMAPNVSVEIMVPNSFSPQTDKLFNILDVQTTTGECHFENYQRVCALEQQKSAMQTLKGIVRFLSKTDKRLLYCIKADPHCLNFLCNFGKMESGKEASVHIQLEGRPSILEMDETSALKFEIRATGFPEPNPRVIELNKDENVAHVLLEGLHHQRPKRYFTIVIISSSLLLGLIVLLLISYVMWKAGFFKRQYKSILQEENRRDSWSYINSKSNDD
T1 sequence (P26010 20-798): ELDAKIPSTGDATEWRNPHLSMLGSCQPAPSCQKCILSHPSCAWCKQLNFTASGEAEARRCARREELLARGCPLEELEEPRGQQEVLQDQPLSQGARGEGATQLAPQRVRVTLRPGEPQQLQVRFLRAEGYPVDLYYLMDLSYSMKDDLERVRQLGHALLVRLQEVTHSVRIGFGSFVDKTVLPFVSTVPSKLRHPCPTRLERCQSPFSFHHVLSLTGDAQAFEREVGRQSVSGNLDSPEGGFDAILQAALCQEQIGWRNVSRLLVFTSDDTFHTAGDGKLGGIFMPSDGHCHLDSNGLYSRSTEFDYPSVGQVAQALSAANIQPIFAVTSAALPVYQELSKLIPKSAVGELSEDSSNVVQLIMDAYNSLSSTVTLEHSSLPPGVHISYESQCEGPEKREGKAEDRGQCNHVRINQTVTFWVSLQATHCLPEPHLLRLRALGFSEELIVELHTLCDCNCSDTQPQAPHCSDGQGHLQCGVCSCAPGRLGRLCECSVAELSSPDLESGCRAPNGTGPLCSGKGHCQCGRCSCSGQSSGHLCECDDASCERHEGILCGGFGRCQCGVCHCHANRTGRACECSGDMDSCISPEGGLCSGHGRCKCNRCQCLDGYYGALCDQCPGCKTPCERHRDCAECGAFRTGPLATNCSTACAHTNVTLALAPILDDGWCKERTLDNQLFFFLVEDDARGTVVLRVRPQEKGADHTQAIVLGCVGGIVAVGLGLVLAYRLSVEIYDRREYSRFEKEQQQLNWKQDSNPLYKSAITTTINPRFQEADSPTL
Method: VCAM Antagonistic Activity (VCAM-1/α4β7 Binding Assay)
The capacity of a test substance antagonistic to the binding of lymphoma cell strain RPMI-8866 of human B cells, known to express integrin α4β7, to VCAM-1 was determined.
(§1) 100 μl/well of a solution (500 ng/ml) of recombinant human VCAM-1 (R & D systems) solution diluted with buffer A (0.1 M NaHCO3, pH 9.6) was added to a micro titer plate having 96 wells (Nunc Maxisorp). After the incubation at 4° C. overnight, unbound VCAM-1 was removed by washing once with PBS. After completion of the washing, a buffer (buffer B) obtained by diluting Block Ace (Dainippon Pharmaceutical Co., Ltd.) with PBS to ¼ concentration was added in an amount of 150 μl/well. After the incubation at room temperature for 1 hour, buffer B was removed and the plate was washed with PBS once.
RPMI-8866 cells were incubated in Dulbecco modified Eagle medium containing 10 μg/ml of Calcein-AM (Wako Pure Chemical Industries, Ltd.) (SIGMA, hereinafter referred to as “DMEM”) at 37° C. for 30 minutes to label with fluorescence. The cells were again suspended in a binding buffer (20 mM HEPES, DMEM containing 0.1% BSA) containing 4 mM of MnCl2.
(§2) 50 μl of a test substance of various concentrations obtained by the dilution with the binding buffer was added to the plate. Immediately thereafter, 50 μl (final volume: 100 μl/well) of the fluorescent RPMI-8866 cells (4×10^6 cells/ml) were added thereto, and they were incubated at room temperature for 30 minutes. After the shaking on a plate shaker (IKA MTS-4) at 800 rpm for 30 seconds, the solution was immediately removed to remove the unbound cells. The fluorescence quantity of the bound cells remaining in the wells was determined with a fluorescent plate reader (Wallac 1420 ARVO multi-label counter) (filter excitation wave length: 485 nm, emission wave length: 535 nm). The fluorescent strength thus obtained is proportional to the number of RPMI-8866 cells bound to VCAM-1 and remaining on the plate. The binding rate of each test material in various concentrations was determined while the fluorescent strength of the test material-free well was determined to be 100%. The concentration IC50 for the 50% binding inhibition was calculated.

[2] = target: T2, integrin α4β1 (Homo sapiens, UniProt P05556+P13612); experiment: VCAM antagonist activity (VCAM-1/α4β1 binding assay), Jurkat cells binding to VCAM-1; type: cell-based; settings: Jurkat cells binding to recombinant human VCAM-1, 30 minutes at room temperature; read-out: VCAM antagonistic activity IC50, α4β1
T2 construct: cell strain Jurkat (ATCC TIB-152) of human T cells, known to express integrin α4β1; endogenous in cells; host or cells: Jurkat (ATCC TIB-152), human T cells
Method: VCAM Antagonist Activity (VCAM-1/α4β1 Binding Assay)
The capacity of a test substance antagonistic to the binding of cell strain Jurkat (ATCC TIB-152) of human T cells, known to express integrin α4β1, to VCAM-1 was determined.
as §1
Jurkat cells were washed with Dulbecco modified Eagle medium (SIGMA, hereinafter referred to as “DMEM”) twice and then incubated in DMEM containing 10 μg/ml of Calcein-AM (Wako Pure Chemical Industries, Ltd.) at 37° C. in dark place for 30 minutes to label with fluorescence. The cells were again suspended in a binding buffer (20 mM HEPES, DMEM containing 0.1% BSA).
as §2, with “Jurkat” for “RPMI-8866”

T2 sequence (P05556 21-798, one chain of several): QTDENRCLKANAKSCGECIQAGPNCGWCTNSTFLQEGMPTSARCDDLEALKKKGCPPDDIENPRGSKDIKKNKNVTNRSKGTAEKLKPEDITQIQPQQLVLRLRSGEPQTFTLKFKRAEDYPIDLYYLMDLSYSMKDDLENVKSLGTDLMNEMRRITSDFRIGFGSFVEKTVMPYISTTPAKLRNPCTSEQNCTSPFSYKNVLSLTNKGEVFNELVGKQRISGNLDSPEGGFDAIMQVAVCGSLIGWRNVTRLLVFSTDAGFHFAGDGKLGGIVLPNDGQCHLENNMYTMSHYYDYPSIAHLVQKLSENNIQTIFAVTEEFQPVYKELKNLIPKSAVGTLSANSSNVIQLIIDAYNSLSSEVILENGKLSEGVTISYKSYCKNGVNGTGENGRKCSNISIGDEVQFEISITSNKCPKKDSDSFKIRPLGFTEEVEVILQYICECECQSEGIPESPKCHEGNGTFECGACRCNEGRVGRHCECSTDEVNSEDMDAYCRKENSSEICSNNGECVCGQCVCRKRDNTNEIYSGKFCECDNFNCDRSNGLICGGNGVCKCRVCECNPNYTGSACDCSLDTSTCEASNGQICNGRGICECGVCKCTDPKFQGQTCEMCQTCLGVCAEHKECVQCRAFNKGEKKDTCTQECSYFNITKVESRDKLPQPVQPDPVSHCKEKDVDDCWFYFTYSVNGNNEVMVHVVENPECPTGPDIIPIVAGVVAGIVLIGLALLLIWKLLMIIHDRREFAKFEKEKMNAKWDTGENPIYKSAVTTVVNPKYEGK

SMILES	IC50 [1] [µM]	IC50 [2] [µM]
Cn1c(=O)c(-c2ccc(C[C@H](NC(=O)c3c(Cl)cccc3Cl)C(=O)O)cc2)cc2ccccc21 [Example 1, (2S)-2-[(2,6-dichlorobenzoyl)amino]-3-[4-(1-methyl-2-oxo-1,2-dihydro-3-quinolinyl)phenyl]propionic acid]	0.09	0.62
COc1c(-c2ccc(C[C@H](NC(=O)c3c(Cl)cccc3Cl)C(=O)O)cc2)c(=O)n(C)c2ccccc12 [Example 6, (2S)-2-[(2,6-dichlorobenzoyl)amino]-3-[4-(4-methoxy-1-methyl-2-oxo-1,2-dihydro-3-quinolinyl)phenyl]propionic acid]	0.0035	0.044
CCC(CC)(C(=O)N[C@@H](Cc1ccc(-c2cc3ccccc3n(C)c2=O)cc1)C(=O)O)C(=O)N1CCCC1 [Example 8, (2S)-2-[[2-ethyl-2-(1-pyrrolidinecarbonyl)butanoyl]amino]-3-[4-(1-methyl-2-oxo-1,2-dihydro-3-quinolinyl)phenyl]propionic acid]	0.018	0.32
Cn1c(=O)c(-c2ccc(C[C@H](NC(=O)c3c(Cl)cccc3Cl)C(=O)O)cc2)cc2cc([N+](C)(C)C)ccc21 [Example 14]	0.0033	0.15
Cn1c(=O)c(-c2ccc(C[C@H](NC(=O)c3c(Cl)ccnc3Cl)C(=O)O)cc2)cc2ccccc21 [Example 19]	0.011	0.29
O=C(N[C@@H](Cc1ccc(-n2ncc3ccccc3c2=O)cc1)C(=O)O)c1c(Cl)cccc1Cl [Example 21]	0.0024	0.19
O=C(N[C@@H](Cc1ccc(N2C(=O)c3cccc(=O)n3C2=O)cc1)C(=O)O)c1c(Cl)cccc1Cl [Example 22]	0.15	–
Cc1cn(-c2ccc(C[C@H](NC(=O)c3c(Cl)cccc3Cl)C(=O)O)cc2)c(=O)c2ccccc12 [Example 23]	0.035	–
CCC(CC)(C(=O)N[C@@H](Cc1ccc(N2C(=O)c3cccc(C)c3C2=O)cc1)C(=O)O)C(=O)N1CCCC1 [Example 26]	0.044	–
Cn1c(=O)c(-c2ccc(C[C@H](NC(=O)c3c(Cl)cccc3Cl)C(=O)O)cc2)cc2cc(S(C)(=O)=O)ccc21 [Example 30]	0.0039	0.064
Cn1c(=O)c(-c2ccc(C[C@H](NC(=O)c3c(Cl)cc(NS(C)(=O)=O)cc3Cl)C(=O)O)cc2)cc2ccccc21 [Example 31]	0.003	0.047
Cn1c(=O)c(-c2ccc(C[C@H](NC(=O)c3c(Cl)cccc3Cl)C(=O)O)cc2)cc2cc(O)ccc21 [Example 33]	0.021	0.255
CCCOc1c(-c2ccc(C[C@H](NC(=O)c3c(Cl)cccc3Cl)C(=O)O)cc2)c(=O)n(C)c2ccccc12 [Example 40]	0.0065	0.115
CCOc1c(-c2ccc(C[C@H](NC(=O)c3c(Cl)cccc3Cl)C(=O)O)cc2)c(=O)n(C)c2ccccc12 [Example 41]	0.0045	0.074
Cc1c(-c2ccc(C[C@H](NC(=O)c3c(Cl)cccc3Cl)C(=O)O)cc2)c(=O)n(C)c2ccccc12 [Example 42]	0.0041	0.052
CCn1c(=O)c(-c2ccc(C[C@H](NC(=O)c3c(Cl)cccc3Cl)C(=O)O)cc2)c(C)c2ccccc21 [Example 43]	0.01	0.178
COc1c(-c2ccc(C[C@H](NC(=O)c3c(Cl)cccc3Cl)C(=O)O)cc2)c(=O)n(C)c2ccc(Cl)cc12 [Example 44]	0.011	0.168
CCCc1c(-c2ccc(C[C@H](NC(=O)c3c(Cl)cccc3Cl)C(=O)O)cc2)c(=O)n(C)c2ccccc12 [Example 45]	0.0073	0.037
CC1CN(c2ccc(C[C@H](NC(=O)c3c(Cl)cccc3Cl)C(=O)O)cc2)C(=O)c2ccccc21 (some centres unmarked) [Example 46]	0.067	–
O=C(N[C@@H](Cc1ccc(N2Cc3ccccc3CC2=O)cc1)C(=O)O)c1c(Cl)cccc1Cl [Example 47]	0.097	–

Source: patent US7884204B2, “Phenylalanine derivatives” (Ajinomoto Co., Inc., priority 2001, dated 2011)
